Measurements taken from US20230399341A1, “7-PHENYL SUBSTITUTED 2-AMINOQUINAZOLINE INHIBITORS OF HPK1” (MERCK SHARP & DOHME LLC, priority 2020, published 2023).

Molecular target: T1, Human HPK1, catalytic domain (Homo sapiens, UniProt Q92918)
T1 sequence (Q92918 1-346): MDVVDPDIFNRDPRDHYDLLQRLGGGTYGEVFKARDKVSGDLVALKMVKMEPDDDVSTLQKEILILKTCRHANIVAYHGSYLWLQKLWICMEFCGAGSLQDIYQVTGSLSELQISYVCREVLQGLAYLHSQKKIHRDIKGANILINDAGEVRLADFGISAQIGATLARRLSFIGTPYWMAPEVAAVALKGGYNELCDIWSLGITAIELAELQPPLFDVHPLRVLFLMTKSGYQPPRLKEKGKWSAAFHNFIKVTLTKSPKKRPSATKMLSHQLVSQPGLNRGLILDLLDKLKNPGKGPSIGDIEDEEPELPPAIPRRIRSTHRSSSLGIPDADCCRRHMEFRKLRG
Assay: HPK1-SLP76 TR-FRET Assay
Type: biochemical
Settings: 75 pM HPK1, ATP 10 uM, SLP76 10 nM, 30 min pre-incubation, 60 min reaction

| SMILES | IC50 [nM] |
| --- | --- |
| Cc1c(-c2cc3nc(Nc4ccc5c(c4)CCN(C)C5)ncc3c(N)c2F)cnc2c1NCCO2 [Compound 2-158, 6-fluoro-7-(8-methyl-2,3-dihydro-1H-pyrido[2,3-b][1,4]oxazin-7-yl)-N~2~- (2-methyl-1,2,3,4-tetrahydroisoquinolin-6-yl)quinazoline-2,5-diamine] | 0.0251 |
| COc1cc2c(cc1Nc1ncc3ccc(-c4cnc5c(c4)OCCN5C)cc3n1)CNCC2 [Compound 1-29, N-(6-methoxy-1,2,3,4-tetrahydroisoquinolin-7-yl)-7-(4-methyl-3,4-dihydro-2H-pyrido[3,2-b][1,4]oxazin-7-yl)quinazolin-2-amine] | 85.8 |
| COc1cc2c(cc1Nc1ncc3ccc(-c4cnc(C(C)(C)O)s4)cc3n1)CN(C)CC2 [Compound 1-15, 2-(5-{2-[(6-methoxy-2-methyl-1,2,3,4-tetrahydroisoquinolin-7-yl)amino]quinazolin-7-yl}-1,3-thiazol-2-yl)propan-2-ol] | 42.7 |
| COc1cc2c(cc1Nc1ncc3ccc(Nc4cccc(CO)c4)cc3n1)CN(C)CC2 [Compound 3-31, [3-({2-[(6-methoxy-2-methyl-1,2,3,4-tetrahydroisoquinolin-7-yl)amino]quinazolin-7-yl}-amino)phenyl]methanol] | 29.4 |
| COc1cc2c(cc1Nc1ncc3ccc(N4CC(C(C)(C)O)OC4=O)cc3n1)CN(C)CC2 (racemic) [Compound 3-9, (S and R)-5-(2-hydroxypropan-2-yl)-3-{2-[(6-methoxy-2-meth-yl-1,2,3,4-tetrahydroisoquinolin-7-yl)amino]quinazolin-7-yl}-1,3-oxazolidin-2-one] | 63 |
| COc1cc2c(cc1Nc1ncc3ccc(-c4cncc(N5CCOCC5)c4)cc3n1)CNCC2 [Compound 1-42, N-(6-methoxy-1,2,3,4-tetrahydroisoquinolin-7-yl)-7-[5-(morpholin-4-yl)pyridin-3-yl]quinazolin-2-amine] | 38.5 |
| Cc1c(-c2cc3nc(Nc4ccc(C5(S(C)(=O)=O)CC5)cc4)ncc3c(N)c2F)cnc2c1NCCO2 [Compound 2-148, 6-fluoro-N~2~-{4-[1-(methanesulfonyl)cyclo-propyl]phenyl}-7-(8-methyl-2,3-dihydro-1H-pyrido[2,3-b][1,4]oxazin-7-yl)quinazoline-2,5-diamine] | 0.0831 |
| CC(=O)Nc1ccc(Nc2ncc3c(N)c(F)c(-c4cnc5c(c4C)NCCO5)cc3n2)cc1 [Compound 2-15] | 0.0731 |
| Cc1c(-c2cc3nc(Nc4ccc(C5CCN(C)C5=O)cc4)ncc3c(N)c2F)cnc2c1NCCO2 (single isomer, unassigned) [Compound 2-146, (R or S)-3-(4-{[5-amino-6-fluoro-7-(8-methyl-2,3-dihydro-1H-pyrido[2,3-b][1,4]oxazin-7-yl)quinazolin-2-ylamino}phenyl)-1-methylpyrrolidin-2-one] | 0.0505 |
| COc1cc2c(cc1Nc1ncc3ccc(N[C@@H]4COC[C@@H]4F)cc3n1)CN(C)CC2 [Compound 3-67, N~7~-[(3R,4R)-4-fluorooxolan-3-yl]-N~2~-(6-methoxy-2-meth-yl-1,2,3,4-tetrahydroisoquinolin-7-yl)quinazoline-2,7-diamine] | 108 |
